Measured values reported in patent publication US8440623B2, “Polymer stabilized neuropeptides” (Nektar Therapeutics, priority 1999, dated 2013).

Columns and labels:
male ICR mice = assay: Analgesia assay (radiant heat tail flick), mice; assay type: in vivo, mouse; settings: intravenous, FIG. 3
Experimental: Male ICR mice (20-25 g) or male Sprague-Dawley rats (250-300 g) (Harlan Sprague-Dawley Inc., Indianapolis, Ind.) were used for these experiments. Animals were housed four per cage in an animal care facility maintained at 22±0.5° C. with an alternating 12 hr light-dark cycle. Food and water were available ad libitum. Animals were used only once.
All drugs were dissolved in sterile saline and were prepared so that the proper dose would be delivered in 5 μl (i.c.v.), 100 μl (i.v.), 100 μl (s.c.) and 100 μl (i.m.) of the vehicle. All rodents were recorded for baseline latency before injection of the drug. A morphine control was used with the i.c.v. and i.v. injection procedures to compare the analgesic efficacies of test compounds. […]
The rodents were placed into restraint holders and their tails were properly placed under the radiant heat beam. The beam was turned on and the time until the animal flicked their tail from under the beam was recorded at each time point. […]
The raw data (recorded times) was converted to a percentage of the maximum possible effect (% M.P.E.) which was determined as 15 seconds. % M.P.E. was determined by the following equation: % M.P.E.=(Recorded time−Baseline)/(15−Baseline)×100
These percentages then allow the compound to be plotted according to % M.P.E. vs. Time. The curve can then be analyzed to determine the area under the curve (AUC).

rat brain = assay: In situ rat brain perfusion (brain uptake); settings: radiolabeled compound
Experimental: The protocol for the rat brain perfusion experiments was approved by the Institutional Animal Care and Use Committee at the University of Arizona. The in situ perfusion, capillary depletion, brain extract and protein binding studies were carried out as previously reported (Williams et al., J. Neurochem., 66 (3), pp 1289-1299, 1996).
The protocol for the rat brain perfusion experiments was approved by the Institutional Animal Care and Use Committee at the University of Arizona. The in situ perfusion studies were carried out as previously reported (Williams et al., J. Neurochem., 66 (3), pp 1289-1299, 1996).

[1] = Enzymatic stability in blood plasma; assay type: in vitro ADME
Source text: (§1) The major contribution is that PEGylation improved brain and blood enzymatic stability dramatically. […] After PEGylation, those half-lives increased to hours for endomorphin II.

[2] = Enzymatic stability in brain tissue; assay type: in vitro ADME
Source text: as §1

## C[C@@H](NC(=O)[C@@H](N)Cc1ccc(O)cc1)C(=O)NCC(=O)N[C@@H](Cc1ccccc1)C(=O)NNC(=O)[C@H](Cc1ccccc1)NC(=O)CNC(=O)[C@@H](C)NC(=O)[C@@H](N)Cc1ccc(O)cc1 [native biphalin, (H-Tyr-D-Ala-Gly-Phe-NH—)2]
Male ICR mice
  time mark at which 50% M.P.E. is seen: 90 min
Rat brain
  in situ uptake RBr value: 7.26±0.11

## H-Tyr-Gly-Gly-Phe-Leu-Arg-Arg-Ile-Arg-Pro-Lys-NH2 (H-YGGFLRRIRPK-NH2) [dynorphin]
[1]
  half-lives in either brain or blood (in words): on the order of minutes

## NC(=O)[C@H](Cc1ccccc1)NC(=O)[C@H](Cc1ccccc1)NC(=O)[C@@H]1CCCN1C(=O)[C@@H](N)Cc1ccc(O)cc1 [endomorphin II, H-Tyr-Pro-Phe-Phe-NH2]
[1]; blood plasma
  half-life: 3.2 min
[1]
  half-lives in either brain or blood (in words): on the order of minutes
[2]
  half-life: 13 min

## Tyr-D-Pen-Gly-Phe-D-Pen [I^125 DPDPE]
Rat brain
  in situ uptake RBr value: 3.54±0.30
